This is an account of results in patent publication US8846601B2, “Melanocortin receptor-specific peptides” (Palatin Technologies, Inc., priority 2009, dated 2014).

Assay [1] deals with T1, hMC4-R (Homo sapiens (Human), UniProt P32245). The assay can be described thus: Assay for agonist activity: cAMP accumulation in HEK-293 cells that express hMC4-R. As to conditions: for functional status at MC4-R (agonist / partial agonist): agonist = intrinsic activity 70% or higher, partial agonist 10-70%. Background: Cyclic AMP is a second messenger, typically raised through Gs and lowered through Gi signalling.
Experimental: By “intrinsic activity” is meant the maximal functional activity achievable by a compound in a specified melanocortin receptor expressing cell system, such as the maximal stimulation of adenylyl cyclase.
Accumulation of intracellular cAMP was examined as a measure of the ability of the peptides of the present invention to elicit a functional response in HEK-293 cells that express MC4-R. Confluent HEK-293 cells that express recombinant hMC4-R were detached from culture plates by incubation in enzyme-free cell dissociation buffer. Dispersed cells were suspended in Earle's Balanced Salt Solution containing 10 mM HEPES (pH 7.5), 1 mM MgCl2, 1 mM glutamine, 0.5% albumin and 0.3 mM 3-isobutyl-1-methyl-xanthine (IBMX), a phosphodiesterase inhibitor. […] Cells were exposed for 15 minutes at 37° C. to peptides of the present invention dissolved in DMSO (final DMSO concentration of 1%) at a concentration range of 0.05-5000 nM in a total assay volume of 200 μL. […] Data analysis was performed by nonlinear regression analysis with Graph-Pad Prism® software. The maximum efficacies of the test peptides of the present invention were compared to that achieved by the reference melanocortin agonist NDP-αMSH.

Assay [2] deals with T1, hMC4-R. Put plainly: Competitive inhibition binding assay using [I125]-NDP-α-MSH, hMC4-R membranes. The gist of the method:
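Membranes from HEK-293 cells expressing recombinant hMC1-R or hMC4-R incubated with 0.1 nM (MC1-R) or 0.2 nM (MC4-R) [I125]-NDP-α-MSH and increasing peptide concentrations in HEPES pH 7.5, 60 min at 37 °C; filtered, gamma counted.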

Assay [3] deals with T1, hMC4-R. The assay can be described thus: Competitive binding assay using Eu-NDP-α-MSH (TRF), hMC4-R membranes. As to conditions: averaged; Eu-NDP-α-MSH (values marked *); read-out: MC4-R Ki. As to the method:
Alternatively, a competitive inhibition binding assay was performed employing Eu-NDP-α-MSH (PerkinElmer Life Sciences catalog No. AD0225) with determination by time-resolved fluorometry (TRF) of the lanthanide chelate. […] After incubation for 90 minutes at 37° C., the reaction was stopped by filtration over AcroWell 96-well filter plates (Pall Life Sciences). The filter plates were washed 4 times with 200 μL of ice-cold phosphate-buffered saline. DELFIA Enhancement solution (PerkinElmer Life Sciences) was added to each well. […] Each assay was conducted in duplicate and mean values were utilized. Ki values were determined by curve-fitting with Graph-Pad Prism® software using a one-site fixed-slope competition binding model.

In assay [4] the target is hMC1-R (Homo sapiens (Human), UniProt Q01726). The assay can be described thus: Competitive inhibition binding assay, human recombinant MC1-R. As to the method: A competitive inhibition binding assay is performed using membrane homogenates prepared from HEK-293 cells that express recombinant hMC4-R, hMC3-R, or hMC5-R, and from B-16 mouse melanoma cells (containing endogenous MC1-R). In some instances, HEK-293 cells that express recombinant hMC1-R were employed. In the examples that follow, all MC3-R, MC4-R and MC5-R values are for human recombinant receptors. […] Membrane homogenates were incubated with 0.2 nM (for hMC4-R) 0.4 nM (for MC3-R and MC5-R) or 0.1 nM (for mouse B16 MC1-R or hMC1-R) [I^125]-NDP-α-MSH (Perkin Elmer) and increasing concentrations of test peptides of the present invention in buffer containing 25 mM HEPES buffer (pH 7.5) with 100 mM NaCl, 2 mM CaCl2, 2 mM MgCl2, 0.3 mM 1,10-phenanthroline, and 0.2% bovine serum albumin. After incubation for 60 minutes at 37° C., the assay mixture was filtered and the membranes washed three times with ice-cold buffer. Filters were dried and counted in a gamma counter for bound radioactivity. […] Maximal specific binding (100%) was defined as the difference in radioactivity (cpm) bound to cell membranes in the absence and presence of 1 μM NDP-α-MSH. […] Each assay was conducted in triplicate and the actual mean values are described, with results less than 0% reported as 0%. Ki values for test peptides of the present invention were determined using Graph-Pad Prism® curve-fitting software.

Setting [5] is: averaged, [I125]-NDP-α-MSH (values not marked *), read-out: MC4-R Ki.

Peptide text beside a SMILES is read from it.

T1 sequence (P32245 whole entry): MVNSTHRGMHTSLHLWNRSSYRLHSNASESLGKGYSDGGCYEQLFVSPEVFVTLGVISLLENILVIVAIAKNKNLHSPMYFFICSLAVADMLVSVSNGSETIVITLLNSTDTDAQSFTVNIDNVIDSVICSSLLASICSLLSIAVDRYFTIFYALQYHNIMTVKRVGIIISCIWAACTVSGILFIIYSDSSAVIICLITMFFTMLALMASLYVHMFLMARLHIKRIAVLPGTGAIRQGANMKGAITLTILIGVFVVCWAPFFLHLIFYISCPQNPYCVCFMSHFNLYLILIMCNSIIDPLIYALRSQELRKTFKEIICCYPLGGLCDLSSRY
Sequence of hMC1-R (Q01726 whole entry): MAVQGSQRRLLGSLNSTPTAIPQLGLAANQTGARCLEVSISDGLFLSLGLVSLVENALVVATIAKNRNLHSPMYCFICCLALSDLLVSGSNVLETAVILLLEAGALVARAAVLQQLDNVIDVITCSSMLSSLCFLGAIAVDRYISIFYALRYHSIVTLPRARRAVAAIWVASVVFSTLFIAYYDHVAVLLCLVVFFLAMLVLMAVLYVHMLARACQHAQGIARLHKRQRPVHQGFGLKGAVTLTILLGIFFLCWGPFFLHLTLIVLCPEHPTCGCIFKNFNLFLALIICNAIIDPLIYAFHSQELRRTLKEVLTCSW

For the molecule `CC(=O)N[C@H](CCCNC(=N)N)C(=O)N[C@H]1CC(=O)NCCCC[C@@H](C(N)=O)NC(=O)[C@H](Cc2c[nH]c3ccccc23)NC(=O)[C@H](CCCNC(=N)N)NC(=O)[C@@H](Cc2ccccc2)NC(=O)[C@H](CCC(N)=O)NC1=O` [compound 71, Ac-D-Arg-cyclo(Asp- Gln-D-Phe-Arg-Trp- Lys)-NH2], the 50% effective concentration (EC50) (in general, the concentration at which the effect is half-maximal) in assay [1] was determined as 2 nM. In addition, the Ki in assay [2] (setting [5]) and in assay [2] (read-out: hMC4-R (Ki)) was 45 nM each time.

Consider `CC(=O)N[C@@H](CCCNC(=N)N)C(=O)N[C@H]1CC(=O)NCCCC[C@@H](C(=O)O)NC(=O)[C@H](Cc2c[nH]c3ccccc23)NC(=O)[C@H](CCCNC(=N)N)NC(=O)[C@@H](Cc2ccccc2)NC(=O)[C@H](CCCNC(=N)N)NC1=O` [compound 73, Ac-Arg-cyclo(Asp-Arg- D-Phe-Arg-Trp-Lys)-OH], for which, in assay [3], the Ki – broadly, the equilibrium dissociation constant of an inhibitor or competing ligand from its target – is 60 nM.

Consider `CC(=O)N[C@H](CCCNC(=N)N)C(=O)N[C@H]1CCC(=O)NCCC[C@@H](C(=O)O)NC(=O)[C@H](Cc2c[nH]c3ccccc23)NC(=O)[C@H](CCCNC(=N)N)NC(=O)[C@@H](Cc2ccccc2)NC(=O)[C@H](Cc2c[nH]cn2)NC1=O` [compound 85, Ac-D-Arg-cyclo(Glu- His-D-Phe-Arg-Trp- Orn)-OH] (HELM PEPTIDE1{[ac].[dR].E.H.[dF].R.W.[Orn]}$PEPTIDE1,PEPTIDE1,3:R3-8:R3$$$V2.0), for which the inhibition constant Ki in assay [3] is 40 nM.

Regarding `CC(=O)N[C@@H](CCCNC(=N)N)C(=O)N[C@H]1CCC(=O)NCCC[C@@H](C(=O)O)NC(=O)[C@H](Cc2c[nH]c3ccccc23)NC(=O)[C@H](CCCNC(=N)N)NC(=O)[C@@H](Cc2ccccc2)NC(=O)[C@H](CCCCN)NC1=O` [compound 89, Ac-Arg-cyclo(Glu-Lys- D-Phe-Arg-Trp-Orn)- OH] (HELM PEPTIDE1{[ac].R.E.K.[dF].R.W.[Orn]}$PEPTIDE1,PEPTIDE1,3:R3-8:R3$$$V2.0), the Ki in assay [3] worked out at 113 nM.

Regarding `CC(=O)N[C@@H](CCCNC(=N)N)C(=O)N[C@H]1CCCCNC(=O)C[C@@H](C(N)=O)NC(=O)[C@H](Cc2c[nH]c3ccccc23)NC(=O)[C@H](CCCNC(=N)N)NC(=O)[C@@H](Cc2ccccc2)NC(=O)[C@H](Cc2c[nH]cn2)NC1=O` [compound 96, Ac-Arg-cyclo(Lys-His- D-Phe-Arg-Trp-Asp)- NH2] (HELM PEPTIDE1{[ac].R.K.H.[dF].R.W.D.[am]}$PEPTIDE1,PEPTIDE1,3:R3-8:R3$$$V2.0; bridges inferred), the inhibition constant (Ki) in assay [3] was 1 nM.

For the molecule `CCNC(=O)[C@@H]1CCCNC(=O)CC[C@H](NC(=O)[C@H](CCCNC(=N)N)NC(C)=O)C(=O)N[C@@H](Cc2c[nH]cn2)C(=O)N[C@H](Cc2ccccc2)C(=O)N[C@@H](CCCNC(=N)N)C(=O)N[C@@H](Cc2c[nH]c3ccccc23)C(=O)N1` [compound 109, Ac-Arg-cyclo(Glu-His- D-Phe-Arg-Trp-Orn)- NH-Et] (HELM PEPTIDE1{[ac].R.E.H.[dF].R.W.[Orn].[CCN[*:1]]}$PEPTIDE1,PEPTIDE1,3:R3-8:R3$$$V2.0), the inhibition constant Ki in assay [3] worked out at 6 nM.

For `CC(=O)N[C@@H](CCCNC(=N)N)C(=O)N[C@H]1CCC(=O)NCCC[C@@H](C(=O)NC2CC2)NC(=O)[C@H](Cc2c[nH]c3ccccc23)NC(=O)[C@H](CCCNC(=N)N)NC(=O)[C@@H](Cc2ccccc2)NC(=O)[C@H](Cc2c[nH]cn2)NC1=O` [compound 110, Ac-Arg-cyclo(Glu-His- D-Phe-Arg-Trp-Orn)- NH-cyclopropyl] (HELM PEPTIDE1{[ac].R.E.H.[dF].R.W.[Orn].[C1CC1N[*:1]]}$PEPTIDE1,PEPTIDE1,3:R3-8:R3$$$V2.0), the Ki in assay [3] is 1 nM.

On to `CC(=O)NC[C@@H]1NC(=O)[C@@H](NC(=O)[C@H](CCCNC(=N)N)NC(C)=O)CC(=O)NCCCC[C@@H](C(N)=O)NC(=O)[C@H](Cc2c[nH]c3ccccc23)NC(=O)[C@H](CCCNC(=N)N)NC(=O)[C@@H](Cc2ccccc2)NC1=O` [compound 114, Ac-Arg-cyclo(Asp- Dab(Acetyl)-D-Phe-Arg- Trp-Lys)-NH2], for which the inhibition constant (Ki) in assay [3] was found to be 88 nM.

On to `CC(=O)N[C@@H](CCCNC(=N)N)C(=O)N[C@H]1CC(=O)NCCCC[C@@H](C(N)=O)NC(=O)[C@H](Cc2c[nH]c3ccccc23)NC(=O)[C@H](CCCNC(=N)N)NC(=O)[C@@H](Cc2ccccc2)NC(=O)[C@H](CNC(=O)[C@H]2CCNC2)NC1=O` [compound 118, Ac-Arg-cyclo(Asp- Dap(betaPro)-D-Ph- Arg-Trp-Lys)-NH2], for which the Ki in assay [3] came to 145 nM.

Turning to `CC(=O)N[C@@H](CCCNC(=N)N)C(=O)N[C@H]1CC(=O)NCCCC[C@@H](C(N)=O)NC(=O)[C@H](Cc2c[nH]c3ccccc23)NC(=O)[C@H](CCCNC(=N)N)NC(=O)[C@@H](Cc2ccccc2)NC(=O)[C@@H]2C[C@@H](Cc3ccccc3Cl)CN2C1=O` [compound 123, Ac-Arg-cyclo(Asp- Pro(4R-2-Cl-Bzl)-D- Phe-Arg-Trp-Lys)-NH2], in assay [3], the Ki stood at 8 nM.

As to `CC(=O)N[C@@H](CCCNC(=N)N)C(=O)N[C@H]1CC(=O)NCCCC[C@@H](C(N)=O)NC(=O)[C@H](Cc2c[nH]c3ccccc23)NC(=O)[C@H](CCCNC(=N)N)NC(=O)[C@@H](Cc2ccccc2)NC(=O)[C@@H]2C[C@@H](Cc3cccc(Cl)c3)CN2C1=O` [compound 124, Ac-Arg-cyclo(Asp- Pro(4R-3-Cl-Bzl)-D- Phe-Arg-Trp-Lys)-NH2], the inhibition constant Ki in assay [3] worked out at 19 nM.

Take `CC(=O)N[C@@H](CCCNC(=N)N)C(=O)N[C@H]1CCCC(=O)NCC[C@@H](C(N)=O)NC(=O)[C@H](Cc2c[nH]c3ccccc23)NC(=O)[C@H](CCCNC(=N)N)NC(=O)[C@@H](Cc2ccccc2)NC(=O)[C@H](Cc2c[nH]cn2)NC1=O` [compound 126, Ac-Arg-cyclo(hGlu-His- D-Phe-Arg-Trp-Dab)- NH2]: in assay [1], the EC50 stood at 0.047 nM and the “functional status at MC4-R (agonist / partial agonist)” value was “agonist”. Also, the Ki in assay [3] came out at 1 nM.

In the case of `CC(=O)N[C@@H](CCCNC(=N)N)C(=O)N[C@H]1CCCC(=O)NCC[C@@H](C(N)=O)NC(=O)[C@H](Cc2c[nH]c3ccccc23)NC(=O)[C@H](CCCNC(=N)N)NC(=O)[C@@H](Cc2ccccc2)NC(=O)[C@H](CCN)NC1=O` [compound 127, Ac-Arg-cyclo(hGlu-Dab- D-Phe-Arg-Trp-Dab)- NH2], in assay [1], the 50% effective concentration (EC50) is 0.06 nM and the “functional status at MC4-R (agonist / partial agonist)” value was “agonist”. The Ki in assay [3] amounted to 2 nM.

`CC(=O)N[C@@H](CCCNC(=N)N)C(=O)N[C@H]1CCNC(=O)CCC[C@@H](C(N)=O)NC(=O)[C@H](Cc2c[nH]c3ccccc23)NC(=O)[C@H](CCCNC(=N)N)NC(=O)[C@@H](Cc2ccccc2)NC(=O)[C@H](Cc2c[nH]cn2)NC1=O` [compound 128, Ac-Arg-cyclo(Dab-His- D-Phe-Arg-Trp-hGlu)- NH2]: the “functional status at MC4-R (agonist / partial agonist)” value in assay [1] is “agonist”.

Turning to `CC(=O)N[C@@H](CCCNC(=N)N)C(=O)N[C@H]1CCNC(=O)CCC[C@@H](C(N)=O)NC(=O)[C@H](Cc2c[nH]c3ccccc23)NC(=O)[C@H](CCCNC(=N)N)NC(=O)[C@@H](Cc2ccccc2)NC(=O)[C@H](CCN)NC1=O` [compound 129, Ac-Arg-cyclo(Dab-Dab- D-Phe-Arg-Trp-hGlu)- NH2], in assay [1], the concentration for a half-maximal effect (EC50) is 0.065 nM and the “functional status at MC4-R (agonist / partial agonist)” value is “agonist”. For the same molecule, the Ki in assay [3] was determined as 4 nM.

For the molecule `CC(=O)N[C@H](CCCCN)C(=O)N[C@H]1CCCNC(=O)CC[C@@H](C(N)=O)NC(=O)[C@H](Cc2c[nH]c3ccccc23)NC(=O)[C@H](CCCNC(=N)N)NC(=O)[C@@H](Cc2ccccc2)NC(=O)[C@H](Cc2c[nH]cn2)NC1=O` [compound 133, Ac-D-Lys-cyclo(Orn- His-D-Phe-Arg-Trp- Glu)-NH2], in assay [3], the Ki was 8 nM.

Consider `CC(=O)N[C@@H](CCCNC(=N)N)C(=O)N[C@H]1CCCC(=O)NCC[C@@H](C(N)=O)NC(=O)[C@H](Cc2c[nH]c3ccccc23)NC(=O)[C@H](CCCNC(=N)N)NC(=O)[C@@H](Cc2ccccc2)NC(=O)[C@H](CC(N)=O)NC1=O` [compound 160, Ac-Arg-cyclo(hGlu-Asn- D-Phe-Arg-Trp-Dab)- NH2] (HELM PEPTIDE1{[ac].R.[O=C([C@H](CCCC(=O)[*:3])N[*:1])[*:2]].N.[dF].R.W.[Dab].[am]}$PEPTIDE1,PEPTIDE1,3:R3-8:R3$$$V2.0), for which, in assay [1], the response was half-maximal at 0.245 nM (EC50). The figures for the inhibitory constant (Ki) in assay [2] (setting [5]), in assay [2] (read-out: hMC4-R (Ki)) and in assay [4] were 8 nM, 8 nM and 295 nM, respectively.
